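Exposure lasted 48 hours, with cells grown in 96-well plates and compounds tested at five concentrations. GI50: concentration for 50% inhibition of growth. TGI denotes the concentration required for complete inhibition of growth.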
Assays:
Experiment in all cases: DTP human tumour cell line panel, 48 h
LOX IMVI melanoma = tested on: LOX IMVI melanoma
CCRF-CEM leukemia = tested on: CCRF-CEM leukemia
HCT-15 colon = tested on: HCT-15 colon
HOP-62 NSCLC = tested on: HOP-62 NSCLC
SNB-75 CNS = tested on: SNB-75 CNS
U251 CNS = tested on: U251 CNS
NCI/ADR-RES ovarian = tested on: NCI/ADR-RES ovarian
OVCAR-3 ovarian = tested on: OVCAR-3 ovarian
SNB-19 CNS = tested on: SNB-19 CNS
OVCAR-4 ovarian = tested on: OVCAR-4 ovarian
SF-295 CNS = tested on: SF-295 CNS
RXF 393 renal = tested on: RXF 393 renal
COLO 205 colon = tested on: COLO 205 colon
UO-31 renal = tested on: UO-31 renal
MDA-MB-468 breast = tested on: MDA-MB-468 breast
NCI-H23 lung = tested on: NCI-H23 lung
SK-MEL-28 melanoma = tested on: SK-MEL-28 melanoma
HL-60(TB) leukemia = tested on: HL-60(TB) leukemia
786-0 renal = tested on: 786-0 renal
UACC-62 melanoma = tested on: UACC-62 melanoma
BT-549 breast = tested on: BT-549 breast
CAKI-1 renal = tested on: CAKI-1 renal
TK-10 renal = tested on: TK-10 renal
MOLT-4 leukemia = tested on: MOLT-4 leukemia
SR leukemia = tested on: SR leukemia
HCT-116 colon = tested on: HCT-116 colon
KM12 colon = tested on: KM12 colon
SN12C renal = tested on: SN12C renal
SK-OV-3 ovarian = tested on: SK-OV-3 ovarian
IGROV1 ovarian = tested on: IGROV1 ovarian
UACC-257 melanoma = tested on: UACC-257 melanoma
OVCAR-8 ovarian = tested on: OVCAR-8 ovarian
MALME-3M melanoma = tested on: MALME-3M melanoma
T-47D breast = tested on: T-47D breast
HT29 colon = tested on: HT29 colon
M14 melanoma = tested on: M14 melanoma
EKVX NSCLC = tested on: EKVX NSCLC
NCI-H522 lung = tested on: NCI-H522 lung
SK-MEL-5 melanoma = tested on: SK-MEL-5 melanoma
MDA-MB-231 breast = tested on: MDA-MB-231 breast
ACHN renal = tested on: ACHN renal
NCI-H460 lung = tested on: NCI-H460 lung
HCC-2998 colon = tested on: HCC-2998 colon
A549 NSCLC = tested on: A549 NSCLC
MCF7 breast = tested on: MCF7 breast
MDA-MB-435 = tested on: MDA-MB-435
OVCAR-5 ovarian = tested on: OVCAR-5 ovarian
HS 578T breast = tested on: HS 578T breast
NCI-H226 lung = tested on: NCI-H226 lung
SF-539 CNS = tested on: SF-539 CNS
SK-MEL-2 melanoma = tested on: SK-MEL-2 melanoma
PC-3 prostate = tested on: PC-3 prostate
HOP-92 NSCLC = tested on: HOP-92 NSCLC
K-562 leukemia = tested on: K-562 leukemia
SW-620 colon = tested on: SW-620 colon
DU-145 prostate = tested on: DU-145 prostate
SF-268 CNS = tested on: SF-268 CNS
A498 renal = tested on: A498 renal
RPMI-8226 leukemia = tested on: RPMI-8226 leukemia

Structure (SMILES): O=C(Nc1ccc(-c2ccc3c(c2)NC(=O)/C3=C\c2ccc[nH]2)cc1)Nc1ccc(Cl)c(C(F)(F)F)c1
- GI50 (LOX IMVI melanoma): 1730 nM
- TGI (LOX IMVI melanoma): 3.33 µM
- GI50 (CCRF-CEM leukemia): 2570 nM
- TGI (CCRF-CEM leukemia): 9.6 µM
- GI50 (HCT-15 colon): 1600 nM
- TGI (HCT-15 colon): 4.04 µM
- GI50 (HOP-62 NSCLC): 2090 nM
- TGI (HOP-62 NSCLC): 8.75 µM
- GI50 (SNB-75 CNS): 2640 nM
- TGI (SNB-75 CNS): 17.4 µM
- GI50 (U251 CNS): 1640 nM
- TGI (U251 CNS): 3.42 µM
- GI50 (NCI/ADR-RES ovarian): 2930 nM
- TGI (NCI/ADR-RES ovarian): 11.1 µM
- GI50 (OVCAR-3 ovarian): 1570 nM
- TGI (OVCAR-3 ovarian): 3.62 µM
- GI50 (SNB-19 CNS): 3.6 µM
- TGI (SNB-19 CNS): 15.5 µM
- GI50 (OVCAR-4 ovarian): 1240 nM
- TGI (OVCAR-4 ovarian): 8.4 µM
- GI50 (SF-295 CNS): 2840 nM
- TGI (SF-295 CNS): 10.2 µM
- GI50 (RXF 393 renal): 2250 nM
- TGI (RXF 393 renal): 5.34 µM
- GI50 (COLO 205 colon): 2820 nM
- TGI (COLO 205 colon): 10.9 µM
- GI50 (UO-31 renal): 1750 nM
- TGI (UO-31 renal): 14.3 µM
- GI50 (MDA-MB-468 breast): 33 nM
- TGI (MDA-MB-468 breast): 322 nM
- GI50 (NCI-H23 lung): 1120 nM
- TGI (NCI-H23 lung): 3.12 µM
- GI50 (SK-MEL-28 melanoma): 3.04 µM
- TGI (SK-MEL-28 melanoma): 10.2 µM
- GI50 (HL-60(TB) leukemia): 3.27 µM
- TGI (HL-60(TB) leukemia): 15 µM
- GI50 (786-0 renal): 3.09 µM
- TGI (786-0 renal): 10.2 µM
- GI50 (UACC-62 melanoma): 2620 nM
- TGI (UACC-62 melanoma): 12.9 µM
- GI50 (BT-549 breast): 2050 nM
- TGI (BT-549 breast): 6.15 µM
- GI50 (CAKI-1 renal): 2920 nM
- TGI (CAKI-1 renal): 12.9 µM
- GI50 (TK-10 renal): 1430 nM
- TGI (TK-10 renal): 7.55 µM
- GI50 (MOLT-4 leukemia): 2480 nM
- TGI (MOLT-4 leukemia): 11.4 µM
- GI50 (SR leukemia): 2130 nM
- TGI (SR leukemia): 7.01 µM
- GI50 (HCT-116 colon): 1780 nM
- TGI (HCT-116 colon): 3.46 µM
- GI50 (KM12 colon): 2240 nM
- TGI (KM12 colon): 10.6 µM
- GI50 (SN12C renal): 1710 nM
- TGI (SN12C renal): 3.53 µM
- GI50 (SK-OV-3 ovarian): 2560 nM
- TGI (SK-OV-3 ovarian): 13.9 µM
- GI50 (IGROV1 ovarian): 4.05 µM
- TGI (IGROV1 ovarian): 17.4 µM
- GI50 (UACC-257 melanoma): 2770 nM
- TGI (UACC-257 melanoma): 9.01 µM
- GI50 (OVCAR-8 ovarian): 2170 nM
- TGI (OVCAR-8 ovarian): 5.38 µM
- GI50 (MALME-3M melanoma): 3.78 µM
- TGI (MALME-3M melanoma): 16.4 µM
- GI50 (T-47D breast): 290 nM
- TGI (T-47D breast): 4.12 µM
- GI50 (HT29 colon): 2560 nM
- TGI (HT29 colon): 7.71 µM
- GI50 (M14 melanoma): 3.47 µM
- TGI (M14 melanoma): 14.4 µM
- GI50 (EKVX NSCLC): 243 nM
- TGI (EKVX NSCLC): 6.38 µM
- GI50 (NCI-H522 lung): 1540 nM
- TGI (NCI-H522 lung): 3.67 µM
- GI50 (SK-MEL-5 melanoma): 5.56 µM
- TGI (SK-MEL-5 melanoma): 18.8 µM
- GI50 (MDA-MB-231 breast): 2230 nM
- TGI (MDA-MB-231 breast): 10.1 µM
- GI50 (ACHN renal): 3000 nM
- TGI (ACHN renal): 9.6 µM
- GI50 (NCI-H460 lung): 489 nM
- TGI (NCI-H460 lung): 1820 nM
- GI50 (HCC-2998 colon): 2180 nM
- TGI (HCC-2998 colon): 6.15 µM
- GI50 (A549 NSCLC): 1560 nM
- TGI (A549 NSCLC): 3.56 µM
- GI50 (MCF7 breast): 180 nM
- TGI (MCF7 breast): 1630 nM
- GI50 (MDA-MB-435): 2000 nM
- TGI (MDA-MB-435): 4.67 µM
- GI50 (OVCAR-5 ovarian): 2180 nM
- TGI (OVCAR-5 ovarian): 10.5 µM
- GI50 (HS 578T breast): 2640 nM
- TGI (HS 578T breast): 16.1 µM
- GI50 (NCI-H226 lung): 1330 nM
- TGI (NCI-H226 lung): 11.4 µM
- GI50 (SF-539 CNS): 1820 nM
- TGI (SF-539 CNS): 6.59 µM
- GI50 (SK-MEL-2 melanoma): 3.48 µM
- TGI (SK-MEL-2 melanoma): 14.2 µM
- GI50 (PC-3 prostate): 1830 nM
- TGI (PC-3 prostate): 6.69 µM
- GI50 (HOP-92 NSCLC): 1230 nM
- TGI (HOP-92 NSCLC): 4.69 µM
- GI50 (K-562 leukemia): 2540 nM
- TGI (K-562 leukemia): 11.3 µM
- GI50 (SW-620 colon): 1880 nM
- TGI (SW-620 colon): 3.89 µM
- GI50 (DU-145 prostate): 2130 nM
- TGI (DU-145 prostate): 4.99 µM
- GI50 (SF-268 CNS): 1940 nM
- TGI (SF-268 CNS): 5.09 µM
- GI50 (A498 renal): 2350 nM
- TGI (A498 renal): 9.4 µM
- GI50 (RPMI-8226 leukemia): 1560 nM
- TGI (RPMI-8226 leukemia): 4.98 µM

— PubChem BioAssay (NCI)
